Usually IC50 stands for the concentration that gives 50% inhibition.

Data set [1] in a line: two week range finding toxicity study in cynomolgus monkeys. The data set is classed as in vivo, cynomolgus monkey. To be noted: 10, 30, 100 and 300 mg/kg daily, two weeks. On the procedure: A two week range finding study in cynomolgus monkeys was carried out at daily doses of 10, 30, 100 and 300 mg/kg of Compound (16).
The test system of data set [2] is PGE2 levels in the air-pouch exudate. The data set can be described thus: PGE2 in exudate of carrageenan-induced inflammation (air-pouch model) in rats. Conditions: Rattus norvegicus; 0.1-30 mg/kg, relative to vehicle; read-out: IC50, inhibition of PGE2 levels in the exudate. The data set is classed as in vivo, rat.
For a further data set, the target named is COX I (Homo sapiens, UniProt P23219). The data set can be described thus: radiometric assay, COX I inhibition (human recombinant, baculovirus expressed, partially purified). It counts as biochemical. Set-up: A 2 Kb fragment containing the coding region of COX I; made in house; host or cells: Sf9 insect cells, baculovirus (cDNA from Oxford Biomedical Research). To be noted: 10 min incubation with compound; 45 sec incubation with 20 μM AA; separation of radioactive products; read-out: COX I IC50. A digest of the protocol:
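Partially purified baculovirus-expressed human enzyme preincubated with compound, 2 mM phenol (5 min) then 1 μM hematin (5 min). Reaction in Tris-HCl pH 7.9 with 20 μM 1-[14C]arachidonate for 45 s at room temperature, acid-stopped; oxygenated products isolated on Sep-Pak and counted by scintillation.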

COX I, sequence (P23219 24-599): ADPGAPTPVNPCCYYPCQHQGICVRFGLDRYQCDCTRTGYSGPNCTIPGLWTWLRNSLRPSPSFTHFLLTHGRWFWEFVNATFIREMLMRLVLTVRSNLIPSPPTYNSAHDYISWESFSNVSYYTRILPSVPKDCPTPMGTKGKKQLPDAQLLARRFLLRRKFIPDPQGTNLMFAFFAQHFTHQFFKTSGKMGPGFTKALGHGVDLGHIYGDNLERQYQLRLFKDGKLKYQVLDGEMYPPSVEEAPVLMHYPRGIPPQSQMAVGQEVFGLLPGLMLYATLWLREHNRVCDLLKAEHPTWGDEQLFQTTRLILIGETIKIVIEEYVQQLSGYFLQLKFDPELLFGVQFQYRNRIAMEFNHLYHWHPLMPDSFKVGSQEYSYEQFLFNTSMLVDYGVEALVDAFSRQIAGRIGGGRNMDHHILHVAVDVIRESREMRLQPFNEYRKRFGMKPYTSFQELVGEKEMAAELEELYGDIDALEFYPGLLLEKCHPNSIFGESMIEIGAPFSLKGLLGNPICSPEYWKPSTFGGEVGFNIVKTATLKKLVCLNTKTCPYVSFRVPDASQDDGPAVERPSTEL

Turning to `Cc1cc(Cc2ccc(=O)[nH]n2)n(C)c1C(=O)c1ccc(Cl)cc1` [Compound 16, 6-[1,4-dimethyl-5-(4chloro-benzoyl)-1H-pyrrol-2-ylmethyl]-2H-pyridazin-3-one], in data set [1], the “clinical signs, clinical chemistry, gross pathology or histopathology” value is given as “No abnormalities were observed”. Moreover, in data set [2], the ED50 lay within 0.7 to 2 mg/kg. For the same molecule, the IC50 at COX I was more than 1 mM.
